In ChEMBL document CHEMBL1201862, “PubChem BioAssay data set” (2004):
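Interpolation was linear, between the two tested concentrations surrounding the appropriate level; five concentrations were tested over 48 hours in 96-well plates. At the GI50, growth is halved.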 The source made the active and inactive calls. Rule as the data show it: active = GI50 up to about 1.1 µM and inactive = higher.

Experiments:
Experiment in all cases: DTP human tumour cell line panel, 48 h
ACHN = test system: ACHN
CAKI-1 = test system: CAKI-1
CCRF-CEM = test system: CCRF-CEM
COLO 205 = test system: COLO 205
DU-145 = test system: DU-145
HCC 2998 = test system: HCC 2998
HOP-62 = test system: HOP-62
HOP-92 = test system: HOP-92
KM12 = test system: KM12
NCI-H460 = test system: NCI-H460
OVCAR-5 = test system: OVCAR-5
RPMI-8226 = test system: RPMI-8226
SK-MEL-2 = test system: SK-MEL-2
SK-OV-3 = test system: SK-OV-3
SN12C = test system: SN12C
SNB-19 = test system: SNB-19
SNB-75 = test system: SNB-75
T47D = test system: T47D
UACC-62 = test system: UACC-62
UO-31 = test system: UO-31

| Compound | GI50 (ACHN) | GI50 (CAKI-1) | GI50 (CCRF-CEM) | GI50 (COLO 205) | GI50 (DU-145) | GI50 (HCC 2998) | GI50 (HOP-62) | GI50 (HOP-92) | GI50 (KM12) | GI50 (NCI-H460) | GI50 (OVCAR-5) | GI50 (RPMI-8226) | GI50 (SK-MEL-2) | GI50 (SK-OV-3) | GI50 (SN12C) | GI50 (SNB-19) | GI50 (SNB-75) | GI50 (T47D) | GI50 (UACC-62) | GI50 (UO-31) |
| --- | --- | --- | --- | --- | --- | --- | --- | --- | --- | --- | --- | --- | --- | --- | --- | --- | --- | --- | --- | --- |
| COC(=O)c1ccc2c(c1)CCN2C(=O)c1cc2c(cc1Br)OCO2 | 5.19 µM (inactive) | 4.7 µM (inactive) | 0.404 µM (active) | 0.406 µM (active) | 1.71 µM (inactive) | 0.989 µM (active) | 3.87 µM (inactive) | 8.69 µM (inactive) | 0.424 µM (active) | 5.81 µM (inactive) | > 50 µM (inactive) | 0.668 µM (active) | 0.723 µM (active) | 3.05 µM (inactive) | 1.81 µM (inactive) | 0.439 µM (active) | 0.484 µM (active) | 4.11 µM (inactive) | 0.439 µM (active) | 2.01 µM (inactive) |
| COc1ccc2c(c1)CCc1cc(OC)ccc1/[N+]([O-])=[N+]\2[O-] | 10.8 µM (inactive) | 17.6 µM (inactive) | 1.92 µM (inactive) | 14.5 µM (inactive) | 18.1 µM (inactive) | 30.1 µM (inactive) | 21.6 µM (inactive) | 13.2 µM (inactive) | 20.2 µM (inactive) | 19.1 µM (inactive) | 23.2 µM (inactive) | 4.86 µM (inactive) | 20.9 µM (inactive) | 18.7 µM (inactive) | 16.2 µM (inactive) | 21.6 µM (inactive) | 17.9 µM (inactive) | 17 µM (inactive) | 15.8 µM (inactive) | 9.08 µM (inactive) |
| Brc1ccc(/C(N=N/C(=N\Sc2ccccc2)c2ccc(Br)cc2)=N/Sc2ccccc2)cc1 | > 61.1 µM (inactive) | > 100 µM (inactive) | > 100 µM (inactive) | > 100 µM (inactive) | > 100 µM (inactive) | > 100 µM (inactive) | > 100 µM (inactive) | > 100 µM (inactive) | > 62.1 µM (inactive) | > 100 µM (inactive) | > 100 µM (inactive) | > 100 µM (inactive) | > 100 µM (inactive) | > 100 µM (inactive) | > 100 µM (inactive) | > 100 µM (inactive) | > 71.8 µM (inactive) | > 100 µM (inactive) | > 100 µM (inactive) | > 100 µM (inactive) |
